{"source": "PubChem BioAssay AID1919017", "about": "(Molecular Pharmacology Branch, DTP, NCI, 2023)", "tested_on": "SW1271 complex spheroids with HUVEC/MSC, growth, % test/control", "assay": "Anticancer human tumor SW1271 cell line growth inhibition [AhR];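 for all read-outs here: spheroids exposed to agents for 7 days before readout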", "conditions": "for IC50: curve of first compound; for viability, T/C: stronger effect = lower value", "summary_of_the_method": "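Complex tumor spheroids co-cultured with HUVEC and human MSC stroma; AhR antagonists tested in combination with standard-of-care and investigational agents. Top concentration at or near clinical Cmax (else 10 microM), half-log dilutions; growth expressed as percent test/control.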", "data": [{"smiles": "CC(C)CC(NC(=O)C(Cc1ccccc1)NC(=O)c1cnccn1)B(O)O", "note": "(stereo not given) + CC(CO)NC(=O)c1cc(-c2ccc(Cl)cc2)nn(-c2cnn(C)c2)c1=O", "values": [{"measurement": "IC50", "setting": "second compound 0.1 µM", "result": 4.95, "unit": "nM"}, {"measurement": "IC50", "setting": "second compound 0.316 µM", "result": 5.08, "unit": "nM"}, {"measurement": "IC50", "setting": "second compound 1 µM", "result": 5.33, "unit": "nM"}, {"measurement": "IC50", "setting": "second compound 3.16 µM", "result": 4.77, "unit": "nM"}, {"measurement": "IC50", "setting": "second compound 10 µM", "result": 4.41, "unit": "nM"}, {"measurement": "viability, T/C", "setting": "second compound 0.1 µM, first compound 0.000949 µM", "result": 116, "unit": "%"}, {"measurement": "viability, T/C", "setting": "second compound 0.1 µM, first compound 0.003 µM", "result": 86.6, "unit": "%"}, {"measurement": "viability, T/C", "setting": "second compound 0.1 µM, first compound 0.00949 µM", "result": 2.31, "unit": "%"}, {"measurement": "viability, T/C", "setting": "second compound 0.1 µM, first compound 0.03 µM", "result": 0.27, "unit": "%"}, {"measurement": "viability, T/C", "setting": "second compound 0.1 µM, first compound 0.0949 µM", "result": 0.34, "unit": "%"}, {"measurement": "viability, T/C", "setting": "second compound 0.1 µM, first compound 0.3 µM", "result": 0.41, "unit": "%"}, {"measurement": "viability, T/C", "setting": "second compound 0.316 µM, first compound 0.000949 µM", "result": 92.5, "unit": "%"}, {"measurement": "viability, T/C", "setting": "second compound 0.316 µM, first compound 0.003 µM", "result": 88.3, "unit": "%"}, {"measurement": "viability, T/C", "setting": "second compound 0.316 µM, first compound 0.00949 µM", "result": 4.62, "unit": "%"}, {"measurement": "viability, T/C", "setting": "second compound 0.316 µM, first compound 0.03 µM", "result": 0.41, "unit": "%"}, {"measurement": "viability, T/C", "setting": "second compound 0.316 µM, first compound 0.0949 µM", "result": 0.43, "unit": "%"}, {"measurement": "viability, T/C", "setting": "second compound 0.316 µM, first compound 0.3 µM", "result": 0.4, "unit": "%"}, {"measurement": "viability, T/C", "setting": "second compound 1 µM, first compound 0.000949 µM", "result": 99.9, "unit": "%"}, {"measurement": "viability, T/C", "setting": "second compound 1 µM, first compound 0.003 µM", "result": 97.5, "unit": "%"}, {"measurement": "viability, T/C", "setting": "second compound 1 µM, first compound 0.00949 µM", "result": 2.34, "unit": "%"}, {"measurement": "viability, T/C", "setting": "second compound 1 µM, first compound 0.03 µM", "result": 0.34, "unit": "%"}, {"measurement": "viability, T/C", "setting": "second compound 1 µM, first compound 0.0949 µM", "result": 0.31, "unit": "%"}, {"measurement": "viability, T/C", "setting": "second compound 1 µM, first compound 0.3 µM", "result": 0.55, "unit": "%"}, {"measurement": "viability, T/C", "setting": "second compound 3.16 µM, first compound 0.000949 µM", "result": 66.9, "unit": "%"}, {"measurement": "viability, T/C", "setting": "second compound 3.16 µM, first compound 0.003 µM", "result": 96.6, "unit": "%"}, {"measurement": "viability, T/C", "setting": "second compound 3.16 µM, first compound 0.00949 µM", "result": 3.1, "unit": "%"}, {"measurement": "viability, T/C", "setting": "second compound 3.16 µM, first compound 0.03 µM", "result": 0.44, "unit": "%"}, {"measurement": "viability, T/C", "setting": "second compound 3.16 µM, first compound 0.0949 µM", "result": 0.3, "unit": "%"}, {"measurement": "viability, T/C", "setting": "second compound 3.16 µM, first compound 0.3 µM", "result": 0.38, "unit": "%"}, {"measurement": "viability, T/C", "setting": "second compound 10 µM, first compound 0.000949 µM", "result": 73.6, "unit": "%"}, {"measurement": "viability, T/C", "setting": "second compound 10 µM, first compound 0.003 µM", "result": 75.2, "unit": "%"}, {"measurement": "viability, T/C", "setting": "second compound 10 µM, first compound 0.00949 µM", "result": 1.45, "unit": "%"}, {"measurement": "viability, T/C", "setting": "second compound 10 µM, first compound 0.03 µM", "result": 0.5, "unit": "%"}, {"measurement": "viability, T/C", "setting": "second compound 10 µM, first compound 0.0949 µM", "result": 0.51, "unit": "%"}, {"measurement": "viability, T/C", "setting": "second compound 10 µM, first compound 0.3 µM", "result": 0.39, "unit": "%"}]}, {"smiles": "COc1cc(Nc2ncc3c(n2)-c2ccc(Cl)cc2C(c2c(F)cccc2OC)=NC3)ccc1C(=O)O", "note": "+ CC(CO)NC(=O)c1cc(-c2ccc(Cl)cc2)nn(-c2cnn(C)c2)c1=O", "values": [{"measurement": "IC50", "setting": "second compound 0.1 µM", "result": 6120, "unit": "nM"}, {"measurement": "IC50", "setting": "second compound 0.316 µM", "result": "> 10000", "unit": "nM"}, {"measurement": "IC50", "setting": "second compound 1 µM", "result": "> 10000", "unit": "nM"}, {"measurement": "IC50", "setting": "second compound 3.16 µM", "result": "> 10000", "unit": "nM"}, {"measurement": "IC50", "setting": "second compound 10 µM", "result": 3590, "unit": "nM"}, {"measurement": "viability, T/C", "setting": "second compound 0.1 µM, first compound 0.0316 µM", "result": 77.5, "unit": "%"}, {"measurement": "viability, T/C", "setting": "second compound 0.1 µM, first compound 0.1 µM", "result": 73.2, "unit": "%"}, {"measurement": "viability, T/C", "setting": "second compound 0.1 µM, first compound 0.316 µM", "result": 82.6, "unit": "%"}, {"measurement": "viability, T/C", "setting": "second compound 0.1 µM, first compound 1 µM", "result": 79.4, "unit": "%"}, {"measurement": "viability, T/C", "setting": "second compound 0.1 µM, first compound 3.16 µM", "result": 58.1, "unit": "%"}, {"measurement": "viability, T/C", "setting": "second compound 0.1 µM, first compound 10 µM", "result": 44, "unit": "%"}, {"measurement": "viability, T/C", "setting": "second compound 0.316 µM, first compound 0.0316 µM", "result": 61.6, "unit": "%"}, {"measurement": "viability, T/C", "setting": "second compound 0.316 µM, first compound 0.1 µM", "result": 58, "unit": "%"}, {"measurement": "viability, T/C", "setting": "second compound 0.316 µM, first compound 0.316 µM", "result": 76.6, "unit": "%"}, {"measurement": "viability, T/C", "setting": "second compound 0.316 µM, first compound 1 µM", "result": 66, "unit": "%"}, {"measurement": "viability, T/C", "setting": "second compound 0.316 µM, first compound 3.16 µM", "result": 52.5, "unit": "%"}, {"measurement": "viability, T/C", "setting": "second compound 0.316 µM, first compound 10 µM", "result": 44.5, "unit": "%"}, {"measurement": "viability, T/C", "setting": "second compound 1 µM, first compound 0.0316 µM", "result": 59.7, "unit": "%"}, {"measurement": "viability, T/C", "setting": "second compound 1 µM, first compound 0.1 µM", "result": 67.1, "unit": "%"}, {"measurement": "viability, T/C", "setting": "second compound 1 µM, first compound 0.316 µM", "result": 72.7, "unit": "%"}, {"measurement": "viability, T/C", "setting": "second compound 1 µM, first compound 1 µM", "result": 73.8, "unit": "%"}, {"measurement": "viability, T/C", "setting": "second compound 1 µM, first compound 3.16 µM", "result": 71.5, "unit": "%"}, {"measurement": "viability, T/C", "setting": "second compound 1 µM, first compound 10 µM", "result": 47.4, "unit": "%"}, {"measurement": "viability, T/C", "setting": "second compound 3.16 µM, first compound 0.0316 µM", "result": 55.7, "unit": "%"}, {"measurement": "viability, T/C", "setting": "second compound 3.16 µM, first compound 0.1 µM", "result": 55.4, "unit": "%"}, {"measurement": "viability, T/C", "setting": "second compound 3.16 µM, first compound 0.316 µM", "result": 60.3, "unit": "%"}, {"measurement": "viability, T/C", "setting": "second compound 3.16 µM, first compound 1 µM", "result": 61.6, "unit": "%"}, {"measurement": "viability, T/C", "setting": "second compound 3.16 µM, first compound 3.16 µM", "result": 56.9, "unit": "%"}, {"measurement": "viability, T/C", "setting": "second compound 3.16 µM, first compound 10 µM", "result": 41.8, "unit": "%"}, {"measurement": "viability, T/C", "setting": "second compound 10 µM, first compound 0.0316 µM", "result": 66.6, "unit": "%"}, {"measurement": "viability, T/C", "setting": "second compound 10 µM, first compound 0.1 µM", "result": 58.7, "unit": "%"}, {"measurement": "viability, T/C", "setting": "second compound 10 µM, first compound 0.316 µM", "result": 70.2, "unit": "%"}, {"measurement": "viability, T/C", "setting": "second compound 10 µM, first compound 1 µM", "result": 54.4, "unit": "%"}, {"measurement": "viability, T/C", "setting": "second compound 10 µM, first compound 3.16 µM", "result": 52.2, "unit": "%"}, {"measurement": "viability, T/C", "setting": "second compound 10 µM, first compound 10 µM", "result": 38.9, "unit": "%"}]}]}
